Results on 6 compounds are retold here after patent US12624044B2, “SMARCA degraders and uses thereof” (Kymera Therapeutics, Inc., priority 2019, dated 2026).

Type in all cases: cell-based
Test [1] concerns the target T1, SMARCA2 (Homo sapiens, UniProt P51531). The test can be described thus: MSD SMARCA2 degradation in A549 cell line. Particulars: 24 h; for Dmax: A549, A549 cells; for DC50: A549 cells, read-out: SMARCA2 MSD A549 degradation 24 h: Average external-Abs DC50. In short, it runs like this: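 A549 cells treated 24 h with compound at final 0.152-1000 nM (3-fold series, DMSO control). Lysates analyzed by MSD immunoassay using anti-SMARCA2/BRM detection and SULFO-TAG secondary antibodies; maximal degradation (Dmax %) reported as letter bins.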

For test [2], the target named is T1, SMARCA2. The test is described as follows: SMARCA2 Western blot MV4-11 degradation. Particulars: 24 h; for Dmax: MV4-11, MV4-11 cells, read-out: SMARCA2 WB MV411 degradation 24 h: Average Dmax %; for DC50: MV4-11 cells, read-out: SMARCA2 WB MV411 degradation 24 h: Average external-Abs DC50. In short, it runs like this: (§1)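 MV4-11 cells treated with compound for 24 h, lysed in RIPA with protease/phosphatase inhibitors, and SMARCA2 and SMARCA4 (BRG1) levels assessed by Western blot with β-actin loading control and LI-COR fluorescent read-out. Maximal degradation (Dmax %) after 24 h binned into letter codes.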
(Immunoblotting shows a protein as a band on a membrane.)

In the next test the target is T2, SMARCA4 (Homo sapiens, UniProt P51532).
T2 construct: SMARCA2 and SMARCA4 protein degradation in MV4-11 cells; endogenous in cells; host or cells: MV4-11
The test is described as follows: SMARCA4 Western blot MV4-11 degradation. The following applies: 24 h; for Dmax: MV4-11, MV4-11 cells, read-out: SMARCA4 WB MV411 degradation 24 h: Average Dmax %; for DC50: MV4-11 cells, read-out: SMARCA4 WB MV411 degradation 24 h: Average external-Abs DC50. In short, it runs like this:
as §1

T2 sequence (P51532 whole entry): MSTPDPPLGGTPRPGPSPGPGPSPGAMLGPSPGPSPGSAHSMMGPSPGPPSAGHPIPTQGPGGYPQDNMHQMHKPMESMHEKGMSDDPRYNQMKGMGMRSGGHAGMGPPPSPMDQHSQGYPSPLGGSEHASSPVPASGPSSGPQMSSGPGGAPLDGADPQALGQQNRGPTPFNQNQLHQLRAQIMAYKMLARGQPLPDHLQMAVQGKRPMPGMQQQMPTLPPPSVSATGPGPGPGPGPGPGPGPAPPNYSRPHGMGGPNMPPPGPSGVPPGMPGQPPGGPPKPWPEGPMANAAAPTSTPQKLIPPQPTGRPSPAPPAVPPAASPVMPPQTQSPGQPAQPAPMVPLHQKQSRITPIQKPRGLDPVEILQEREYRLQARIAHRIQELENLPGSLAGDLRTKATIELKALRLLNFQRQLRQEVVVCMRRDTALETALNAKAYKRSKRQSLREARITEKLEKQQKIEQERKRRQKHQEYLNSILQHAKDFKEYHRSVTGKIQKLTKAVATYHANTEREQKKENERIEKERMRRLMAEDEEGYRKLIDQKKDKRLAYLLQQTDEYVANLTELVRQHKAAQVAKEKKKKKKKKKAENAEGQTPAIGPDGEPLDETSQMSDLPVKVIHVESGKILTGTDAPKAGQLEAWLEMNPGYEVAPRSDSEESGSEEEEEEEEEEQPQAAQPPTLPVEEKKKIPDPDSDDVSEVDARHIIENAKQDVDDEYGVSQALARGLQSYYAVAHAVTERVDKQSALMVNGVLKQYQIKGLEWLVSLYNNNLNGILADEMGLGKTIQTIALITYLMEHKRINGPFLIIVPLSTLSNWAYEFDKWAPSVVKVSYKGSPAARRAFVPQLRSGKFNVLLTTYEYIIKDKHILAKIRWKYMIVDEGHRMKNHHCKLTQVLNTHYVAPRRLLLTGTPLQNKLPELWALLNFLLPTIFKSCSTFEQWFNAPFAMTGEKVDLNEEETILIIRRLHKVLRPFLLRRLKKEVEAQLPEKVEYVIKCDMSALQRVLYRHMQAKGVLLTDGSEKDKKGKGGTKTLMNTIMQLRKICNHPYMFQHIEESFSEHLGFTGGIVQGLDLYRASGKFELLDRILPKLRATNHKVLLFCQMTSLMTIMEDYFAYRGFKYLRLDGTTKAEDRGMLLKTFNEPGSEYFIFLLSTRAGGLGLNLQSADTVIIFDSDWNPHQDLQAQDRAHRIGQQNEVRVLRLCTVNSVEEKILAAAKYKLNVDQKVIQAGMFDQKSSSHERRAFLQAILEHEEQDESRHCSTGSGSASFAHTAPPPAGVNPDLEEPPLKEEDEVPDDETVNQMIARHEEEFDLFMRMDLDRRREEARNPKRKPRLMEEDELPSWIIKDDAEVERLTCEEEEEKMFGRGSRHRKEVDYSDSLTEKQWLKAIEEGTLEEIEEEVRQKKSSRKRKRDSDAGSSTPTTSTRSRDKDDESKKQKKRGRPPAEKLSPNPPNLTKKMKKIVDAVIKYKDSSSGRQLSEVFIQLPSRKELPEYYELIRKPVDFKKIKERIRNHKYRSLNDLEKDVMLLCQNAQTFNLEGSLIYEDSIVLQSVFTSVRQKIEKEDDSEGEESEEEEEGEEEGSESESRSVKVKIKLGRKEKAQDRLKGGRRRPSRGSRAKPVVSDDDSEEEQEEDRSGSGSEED
T1 sequence (P51531 whole entry): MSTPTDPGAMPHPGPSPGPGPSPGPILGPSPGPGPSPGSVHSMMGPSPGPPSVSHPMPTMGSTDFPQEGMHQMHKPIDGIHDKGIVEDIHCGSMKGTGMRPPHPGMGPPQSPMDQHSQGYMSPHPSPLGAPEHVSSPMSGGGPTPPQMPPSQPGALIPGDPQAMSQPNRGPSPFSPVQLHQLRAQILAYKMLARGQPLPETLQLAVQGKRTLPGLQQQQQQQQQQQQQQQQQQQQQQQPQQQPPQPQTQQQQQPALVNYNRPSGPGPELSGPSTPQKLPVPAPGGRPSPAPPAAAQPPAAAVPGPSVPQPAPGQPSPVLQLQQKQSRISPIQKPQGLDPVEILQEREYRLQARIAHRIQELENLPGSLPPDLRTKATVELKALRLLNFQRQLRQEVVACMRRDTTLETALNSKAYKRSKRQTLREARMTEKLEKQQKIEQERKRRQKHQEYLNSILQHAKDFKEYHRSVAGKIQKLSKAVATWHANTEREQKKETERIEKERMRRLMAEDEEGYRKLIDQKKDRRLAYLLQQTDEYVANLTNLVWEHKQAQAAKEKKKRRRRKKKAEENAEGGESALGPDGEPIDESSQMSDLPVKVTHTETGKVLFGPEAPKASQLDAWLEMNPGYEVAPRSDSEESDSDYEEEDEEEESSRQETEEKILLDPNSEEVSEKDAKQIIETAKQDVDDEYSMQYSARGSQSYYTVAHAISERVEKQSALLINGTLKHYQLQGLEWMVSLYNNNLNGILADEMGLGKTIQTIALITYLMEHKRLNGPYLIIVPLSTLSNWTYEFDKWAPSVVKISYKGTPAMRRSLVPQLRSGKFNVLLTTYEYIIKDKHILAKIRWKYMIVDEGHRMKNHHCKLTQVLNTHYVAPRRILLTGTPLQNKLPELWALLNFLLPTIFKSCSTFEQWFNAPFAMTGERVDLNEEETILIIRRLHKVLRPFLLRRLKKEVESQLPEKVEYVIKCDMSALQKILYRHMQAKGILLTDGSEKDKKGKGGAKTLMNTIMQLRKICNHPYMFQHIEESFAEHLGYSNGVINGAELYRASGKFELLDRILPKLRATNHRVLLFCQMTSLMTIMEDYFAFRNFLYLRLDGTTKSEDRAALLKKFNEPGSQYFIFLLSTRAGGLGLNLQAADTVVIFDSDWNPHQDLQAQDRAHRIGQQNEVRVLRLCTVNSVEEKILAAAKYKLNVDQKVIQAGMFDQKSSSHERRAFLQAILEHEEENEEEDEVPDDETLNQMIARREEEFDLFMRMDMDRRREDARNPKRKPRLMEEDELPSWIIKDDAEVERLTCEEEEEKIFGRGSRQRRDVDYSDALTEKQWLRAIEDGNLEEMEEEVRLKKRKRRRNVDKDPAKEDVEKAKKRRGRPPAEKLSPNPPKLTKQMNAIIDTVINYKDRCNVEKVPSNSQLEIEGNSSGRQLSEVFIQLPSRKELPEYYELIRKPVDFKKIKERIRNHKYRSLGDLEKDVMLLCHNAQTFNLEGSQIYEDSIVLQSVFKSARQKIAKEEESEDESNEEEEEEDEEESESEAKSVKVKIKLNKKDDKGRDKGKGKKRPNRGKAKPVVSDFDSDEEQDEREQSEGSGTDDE

For the compound `Cn1c(=O)n(C2CCC(=O)NC2=O)c2ccc(CCCCCCCc3nccc(N4C5CCC4CN(c4cc(-c6ccccc6O)nnc4N)C5)n3)cc21` (stereo not drawn) [I-287, 3-(5-(7-(4-(3-(3-amino-6-(2-hydroxyphenyl)pyridazin-4-yl)-3,8-diazabicyclo[3.2.1]octan-8-yl)pyrimidin-2-yl)heptyl)-3-methyl-2-oxo-2,3-dihydro-1H-benzo[d]imidazol-1-yl)piperidine-2,6-dione], the Dmax (in general, the greatest extent of degradation seen) on SMARCA2 [1] is 70 to 90%; on SMARCA2 [2], 70 to 90%; on SMARCA4 it was 50 to 70%. Besides, the half-maximal degradation concentration (DC50) (commonly the concentration giving 50% degradation) on SMARCA2 [1] is 100 to 500 nM; on SMARCA2 [2], under 100 nM; on SMARCA4, over 1000 nM.

In the case of `Cc1ncsc1-c1ccc(CNC(=O)[C@@H]2C[C@@H](O)CN2C(=O)[C@@H](NC(=O)[C@H]2CC[C@@H](c3cnc(N4C5CCC4CN(c4cc(-c6ccccc6O)nnc4N)C5)nc3)CC2)C(C)(C)C)cc1` [I-336], the maximal degradation (Dmax) on SMARCA2 [1], on SMARCA2 [2] and at SMARCA4 was over 90% in each case. Further, the DC50 at SMARCA2 [1] was 100 to 500 nM; on SMARCA2 [2], under 100 nM; at SMARCA4, under 100 nM.

For the compound `Cc1ncsc1-c1ccc(CNC(=O)[C@@H]2C[C@@H](O)CN2C(=O)[C@@H](NC(=O)[C@H]2CC[C@H](c3cnc(N4C5CCC4CN(c4cc(-c6ccccc6O)nnc4N)C5)nc3)CC2)C(C)(C)C)cc1` [I-337, (2S,4R)-1-((2S)-2-((1r,4S)-4-(2-(3-(3-amino-6-(2-hydroxyphenyl)pyridazin-4-yl)-3,8-diazabicyclo[3.2.1]octan-8-yl)pyrimidin-5-yl)cyclohexanecarboxamido)-3,3-dimethylbutanoyl)-4-hydroxy-N-(4-(4-methylthiazol-5-yl)benzyl)pyrrolidine-2-carboxamide], the Dmax at SMARCA2 [1], on SMARCA2 [2] and at SMARCA4 was over 90% in each case. For the same compound, the DC50 at SMARCA2 [1], on SMARCA2 [2] and on SMARCA4 was under 100 nM throughout.

For `Cc1ncsc1-c1ccc(CNC(=O)[C@@H]2C[C@@H](O)CN2C(=O)[C@@H](NC(=O)[C@H]2CC3(C2)C[C@H](N2CCC(n4cc(-c5cc(-c6ccccc6O)nnc5N)cn4)CC2)C3)C(C)(C)C)cc1` (stereo partly drawn) [I-389], the greatest degradation seen (Dmax) at SMARCA2 [1] is over 90%; at SMARCA2 [2], 70 to 90%; at SMARCA4 it was 70 to 90%. The DC50 was 100 to 500 nM on SMARCA2 [1], under 100 nM on SMARCA2 [2] and under 100 nM at SMARCA4.

For the compound `Cc1ncsc1-c1ccc(CNC(=O)[C@@H]2C[C@@H](O)CN2C(=O)[C@@H](NC(=O)[C@H]2CC[C@@H](CN3CCC(n4cc(-c5cc(-c6ccccc6O)nnc5N)cn4)CC3)CC2)C(C)(C)C)cc1` [I-402], the maximal degradation (Dmax) is 70 to 90% on SMARCA2 [1], 70 to 90% at SMARCA2 [2] and under 50% at SMARCA4. Further, the DC50 at SMARCA2 [1] was 100 to 500 nM; at SMARCA2 [2] it was under 100 nM; at SMARCA4, over 1000 nM.

Regarding `Cc1ncsc1-c1ccc(CNC(=O)[C@@H]2C[C@@H](O)CN2C(=O)[C@@H](NC(=O)[C@H]2CC[C@H](CN3CCC(n4cc(-c5cc(-c6ccccc6O)nnc5N)cn4)CC3)CC2)C(C)(C)C)cc1` [I-403], the maximal degradation (Dmax) at SMARCA2 [1] was over 90%; on SMARCA2 [2], 70 to 90%; at SMARCA4 it was under 50%. The DC50 on SMARCA2 [1] was 100 to 500 nM; on SMARCA2 [2] it was under 100 nM; at SMARCA4, 501 to 1000 nM.
